Entries after “also recorded” stand apart in the source; their conditions may differ.
How the values were obtained:
[1] = tested on: HRMEC; test: Ki67 proliferation assay; format: cell-based, human
Experimental: FVMs and cells were incubated with mouse anti-RUNX1 (Santa Cruz) followed by biotinylated secondary antibody (Vector Laboratories), horseradish peroxidase (HRP)-labeled avidin (PerkinElmer), tyramide signal amplification (TSA, PerkinElmer), Vector Red chromogenic substrate (Vector Laboratories) and Gill no. 3 hematoxylin counterstain (Sigma-Aldrich). Immunofluorescent staining for CD31 (mouse anti-CD31; Dako) and Ki67 (rabbit anti-Ki67; Novus Biologicals) was performed as previously described (Kim L A, et al. (2015) Mol Vis 21:673-687). The number of Ki67 positive nuclei was averaged for three fields of view per sample at 20× magnification.
HRMEC were probed for proliferation with the Ki67 marker as follows: cells were permeabilized with 0.5% Triton X-100 in PBS for 5 min, blocked with 5% goat serum in PBS for 2 h at room temperature, incubated with primary antibody overnight at 4° C. (rabbit anti-Ki67 1:50; Novus Biologicals), and incubated with secondary for 2 h at room temperature (goat anti-rabbit Alexa Fluor 594 1:250; Life Technologies Corp.). Samples were imaged using an EVOS® imaging system. The number of Ki67 positive nuclei was averaged for three fields of view per sample at 20× magnification.

[2] = tested on: HES1; test: qRT-PCR of HES1 expression; format: cell-based, human; conditions: 100 nM; 72 hours; 5 mM and 30 mM D-glucose; vs DMSO
Experimental: FIG. 18 is a graph showing that gamma-secretase inhibition using Compound E small molecule (100 nM) reduced the expression of HES1, a canonical downstream target for Notch activity and RUNX1 in primary culture human microvascular endothelial cells. Reduction of HES1 and RUNX1 expression was effective under normal glucose (5 mM D-glucose and high glucose 30 mM D-glucose). Cells were incubated with Compound E or DMSO vehicle control in different glucose concentrations for 72 hours before harvest followed by qRT-PCR for each gene. HPRT1 expression was used as control.
(§1) RNA was extracted using RNeasy Mini Kits (Qiagen). Primers were purchased from Integrated DNA Technologies for 200 candidate genes (Table 4). Genes were excluded from further analysis if there was no amplification or amplification was outside the linear range. […] Fluorescent intensities were normalized to spike-in controls (ERCC RNA Spike-In Mix; Life Technologies), HPRT1, and B2M.

[3] = tested on: RUNX1; test: qRT-PCR of RUNX1 expression; format: cell-based, human
Experimental: (§2) FVMs were collected and CD31+ cells were isolated as previously described [Kim L A, et al. (2015) Mol Vis 21:673-687]. RNA-sequencing was performed using an Illumina HiSeq 2000 (Illumina Inc.), aligned with TopHat (Trapnell et al. (2009) Bioinformatics 25(9):1105-1111], and analyzed using Partek Flow, CuffLinks, EdgeR, and DESeq2. A mixed model ANOVA was used with a threshold false discovery rate (FDR) of <0.05 and fold change >±2 for significance. Gene Ontology was determined using the Database for Annotation, Visualization, and Integrated Discovery (DAVID). […] FVMs and cells were immunostained with standard protocols for paraffin embedded samples.
(§3) siRNA ([…]) (Integrated DNA Technologies; sequences in Table 4) was transfected for 6-8 h using DharmaFECT 1 (GE Life Sciences—Dharmacon) in Opti-MEM (Life Technologies).
as §1

[4] = tested on: RUNX1 protein; test: Western blot of RUNX1 protein; format: cell-based, human; conditions: 72 hours
Experimental: FIG. 13 is an image showing that a commercially available small molecule PIM3 inhibitor (PIM3 kinase inhibitor VII from EMD Millipore) reduced total RUNX1 protein levels in primary culture retinal endothelial cells in normal and high glucose conditions. Human microvascular retinal endothelial cells were cultured in EGM-2 supplemented with different concentrations of D-glucose for 72 hours in the presence of PIM3 inhibitor (PIM3 kinase inhibitor VII from EMD Millipore, Cat No. 526526, 0.05 μM) or vehicle (DMSO). After harvest, proteins were extracted using RIPA buffer and analyzed by western blot. RUNX1 was detected using antibodies from Santacruz (sc-365644). β-actin was used as a loading control.
FIG. 19 is set of images showing that gamma-secretase inhibition using Compound E small molecule (100 nM) reduces the expression of RUNX1 in primary culture human microvascular endothelial cells. […]
Western Blot Analysis: Cells were lysed using RIPA buffer (Cell Signaling Technology (CST)). […] Immunoreactive bands were visualized using the Odyssey Infrared Imaging System and band intensities normalized to β-actin were quantified using Image Studio version 2.1 (LI-COR).

[5] = tested on: C57BL/6J mice with OIR; test: Oxygen-induced retinopathy (OIR) mouse model, retinal flat mounts; format: in vivo; conditions: P17
Experimental: OIR was induced in wild-type C57BL/6J mice as previously described (Smith L E et al., (1994) Invest Ophthalmol Vis Sci 35(1):101-111). Intravitreal injections with 1 μL of 75 μM Ro5-3335 RUNX1 inhibitor or DMSO were performed on left eyes only at P13 and P15 under ketamine/xylazine anesthesia. Pups were euthanized at P17 and eyes were collected, fixed in 4% paraformaldehyde, and used for retinal flat mounts (nvehicle=7; nRo5-3335=9). Avascular and neovascular areas were quantified using Photoshop as previously described (Connor H M et al., (2009) Nature Protocols 4(11):1565-1573).

[6] = tested on: HRMEC; test: Tube forming assay; format: cell-based, human
Experimental: HRMEC were treated overnight with 75 μM Ro5-3335 or DMSO before plating 20000 cells onto wells pre-coated with basement membrane extract (Trevigen). Cells were imaged six h after plating and tube formation was quantified using the Angiogenesis Analyzer plugin for ImageJ.

[7] = HIV treatment trial, Haubrich et al. (1995); cited from earlier work
[8] = tested on: IGFBP3; test: qRT-PCR of IGFBP3 expression; format: cell-based, human; conditions: RUNX1 siRNA knockdown
Experimental: as §3, §1
HRMEC were transfected with pCMV5-AML1c (Addgene Plasmid #12426) (the plasmid contains the sequence of RUNX1 encoding 480 amino acids; in the sequences listed herein this corresponds to RUNX1g) or pCMV5 empty vector using the HCAEC Nucleofector kit (VPB-1001; Program S-005) following manufacturer's optimized protocol.

[9] = tested on: HRMEC; test: Scratch-wound migration assay; format: cell-based, human; conditions: for wound closure (scratch assay): siRNA knockdown of RUNX1, 0-12 h
Experimental: as §2
Migration was assessed with the scratch-wound assay (Liang C C et al. (2007) Nature Protocols 2(2):329-333). One scratch was generated per well and imaged on an EVOS® imaging system every three hours for 12 h. Images were analyzed with the TScratch Matlab module (Geback et al. (2009) Biotechniques 46(4):265-274).

[10] = tested on: RUNX2; test: qRT-PCR of RUNX2 expression; format: cell-based, human; conditions: RUNX1 siRNA; 48 hours post-transfection
Experimental: as §3, §1

[11] = tested on: RUNX3; test: qRT-PCR of RUNX3 expression; format: cell-based, human; conditions: RUNX1 siRNA; 48 hours post-transfection
Experimental: as §3, §1

[12] = intravitreal 75 μM at P13 and P15, vs vehicle
[13] = HRMEC treated overnight with 75 μM Ro5-3335, imaged 6 h after plating, vs DMSO

## N[C@@H]1CCCN(c2c(/C=C3\SC(=O)NC3=O)cccc2-c2ccccc2)C1 [AZD1208]
[1]; treated 48 hours before proliferation assay, Ki67 marker, vs DMSO control
  reduction in cell migration: 43%

## C[C@H](NC(=O)Cc1cc(F)cc(F)c1)C(=O)N[C@H]1N=C(c2ccccc2)c2ccccc2N(C)C1=O [Compound E]
[2]
  HES1 expression: reduced
[3]; 100 nM, 72 hours, 5 mM and 30 mM D-glucose, vs DMSO
  RUNX1 expression (qRT-PCR): reduced
[4]; 100 nM, 5 mM and 30 mM D-glucose
  RUNX1 expression (western blot): reduces

## CC/C(=N\NC(=O)c1ccnc(NCCCN2CCOCC2)c1)c1ccc(Cl)cc1O [PIM3 kinase inhibitor VII, N′-(1-(4-Chloro-2-hydroxyphenyl)propylidene)-2-((3-morpholinopropyl)amino)isonicotinohydrazide]
[4]; 0.05 μM, normal and high glucose, vs DMSO
  total RUNX1 protein levels: reduced

## O=C1CN=C(c2ccc[nH]2)c2cc(Cl)ccc2N1 [Ro5-3335]
[5]; [12]
  avascular area (extent of vaso-obliteration): no significant change; also recorded: non-significant downward trend
  neovascularization / neovascular tufts: significant reduction
[5]; intravitreal 1 μL of 75 μM at P13 and P15, vs vehicle treated eyes
  reduction in neovascularization: 50%
[6]; [13]
  meshes reduction: 46%
  nodes reduction: 35%
  total tube length reduction: 18%
[6]; overnight treatment, 6 h after plating, vs vehicle treated cells
  tube forming capacity: reduced tube forming capacity

## CNC1=Nc2ccc(Cl)cc2C(c2ccc[nH]2)=NC1 [Ro24-7429]
[7]
  safety in clinical trial: safe

## RUNX1 siRNA: siRNA against human RUNX1, Integrated DNA Technologies; duplex hs.Ri.RUNX1.13.3 (SEQ ID NO: 247/248) (chain 1 CCUUUCAUGUUAAUCAAACAAGUGA; chain 2 UCACUUGUUUGAUUAACAUGAAAGGGA; listed as RNA, chemistry not fully specified)
[8]
  increase in IGFBP3 mRNA expression: 330%
[9]; RUNX1 siRNA knockdown, monitored 12 h, vs controls
  decrease in wound closure rate: 60%
[9]
  wound closure (scratch assay): effectively inhibits wound closure
[10]
  RUNX2 RNA expression: did not significantly affect; also recorded: no significant changes
[3]; RUNX1 siRNA, 48 hours post-transfection
  reduction of RUNX1 RNA expression: 60%
[1]; 48 h post transfection, vs transfection reagent alone or scramble siRNA
  cell number and proliferative capacity (Ki67 staining): significant reduction
[1]; RUNX1 siRNA transfected EC vs controls
  fewer Ki67 positive cells: 60%
[11]
  RUNX3 RNA expression: did not significantly affect; also recorded: no significant changes

## siRNA-2: second RUNX1 siRNA; probably duplex HSC.RNAI.N001001890.12.1 (SEQ ID NO: 249/250) (chain 1 ACUAGAUGAUCAGACCAAGCCCGGG; chain 2 CCCGGGCUUGGUCUGAUCAUCUAGUUU; listed as RNA, chemistry not fully specified)
[9]
  wound closure (scratch assay): functional inhibition

Source: US11229662B2, “Compositions and methods for the treatment of aberrant angiogenesis” (The Schepens Eye Research Institute, Inc., priority 2016, dated 2022)
